According to patent US20180171411A1, “GFRalpha1 AS A BIOMARKER FOR CISPLATIN-INDUCED CHEMORESISTANCE AND METASTASIS” (THE BOARD OF REGENTS OF THE UNIVERSITY OF TEXAS SYSTEM, priority 2015, published 2018):

Tests used:
Format in all cases: cell-based, human
[1] = test system: GFRα1-deficient MG-63 and U-2 OS cells; assay: WST-1 cell viability of GFRα1-deficient (siRNA) osteosarcoma cells; settings: GFRα1 siRNA 48 h, then agent 24 h
Experimental: FIG. 6. Cell viability of GFRα1-deficient osteosarcoma cells after treatment of chemotherapeutic agents. MG-63 and U-2 OS cells were transfected with either control siRNA or GFRα1 siRNA for 48 h and then treated with different concentrations of doxorubicin, cisplatin, or methotrexate for 24 h. Cell viability was measured using the WST-1 assay. The values are represented as a mean±s.d.m. (n=3). ** denotes P<0.05 by t-test. (a) MG-63 cells. (b) U-2 OS cells.
Small interfering RNA (siRNA)-based Experiments. Human GFRα1 siRNA, Beclin 1 siRNA, HMGB1 siRNA, AMPK siRNA, c-Src siRNA, NFκB p50 siRNA, APE siRNA and Negative (control) siRNA were purchased from Santa Cruz Biotechnology. Cell lines were transiently transfected with siRNA duplexes using Lipofectamine® RNAiMAX (Life Technologies) according to manufacturer's instructions.
Cell viability assays. WST-1 cell viability assay reagent was purchased from Roche. Equal numbers of cells were seeded in triplicate wells in 48-well plates and maintained in growth medium containing 10% FBS). Cells were cultured with PBS, GDNF (50 ng/mL), GDNF (50 ng/ml)+cisplatin (20 μM), or cisplatin (20 μM) in the presence of serum for 24 hr. Cells were also preincubated with inhibitors (3-MA, PP1, Compound C, Baf and CQ) for 1 hr before stimulating with PBS, GDNF, GDNF+cisplatin, or cisplatin. WST-1 reagent was then treated to the cells at the indicated times and incubated for 2 hr at 37° C. Cell viability was determined by measuring the absorbance after adding WST-1. The spectrophotometric absorbance of the samples was measured using an Ultra Multifunctional Microplate Reader (Tecan, Durham, N.C.) at 450 nm. Experiments were done at least in triplicate using separate cultures.

[2] = test system: GFRα1 expression in MG-63 and U-2 OS cells; assay: Immunoblot of GFRα1 expression after chemotherapeutic agents; settings: doxorubicin 5 μM, cisplatin 20 μM, methotrexate 1 mM, 24 hr
Experimental: FIG. 1. Cisplatin induces GFRα1 expression in osteosarcoma cells. (a-c) Immunoblot analysis of osteosarcoma cell lysates with antibodies specific for GFRα1 and β-actin. (a) MG-63 and U-2 OS cells were treated with doxorubicin (5 μM), cisplatin (20 μM), or methotrexate (1 mM) for 24 hr. Immunoblot analysis of GFRα1 (left) and quantification of GFRα1 expression (right) after treatment of chemotherapeutic agents. (b) MG-63 and U-2 OS cells were treated with different concentrations of cisplatin for 24 hr. (c) MG-63 and U-2 OS cells were treated with cisplatin (20 μM) and collected at the indicated time. (d and e) Quantitative real-time PCR of GFRα1 mRNA expression after cisplatin treatment. Representative images (top) and quantitative analysis (bottom) of GFRα1 mRNA expression. The values are presented as a mean±s.d.m (n=3). ** denotes p<0.05 by t-test. (d) MG-63 and U-2 OS cells were treated with different concentrations of cisplatin for 24 hr. (e) MG-63 and U-2 OS cells were treated with cisplatin (20 μM) and collected at the indicated time.
(§1) Immunoblotting. Cells were washed with PBS and lysed in RIPA Buffer (Pierce, Rockford, Ill.). The protein content was determined using a dye-binding microassay (Bio-Rad, Hercules, Calif.), and 10-50 μg protein per lane was electrophoresed on 4-12% SDS polyacrylamide gels. Proteins were blotted onto Hybond ECL membranes (Amersham Pharmacia Biotech, Piscataway, N.J.). Two protein ladders were used for molecular weight determination (GenDEPOT, Barker, Tex.). The blotted proteins were detected using an enhanced chemiluminescence detection system (iNtRON, Seoul, Korea). Data were quantified and analyzed with Image-J software.

[3] = test system: Src/AMPK signaling in MG-63 cells; assay: Immunoblot of Src/AMPK/mTOR signaling; settings: cisplatin 20 μM, 24 hr
Experimental: FIG. 4. GFRα1 regulates autophagy by Src/AMPK signaling in osteosarcoma cells. (a-b) Immunoblot analysis of osteosarcoma cell lysates with antibodies specific for GFRα1, p-Src, Src, p-AMPK, AMPK, p-mTOR, mTOR, p-p70 S6Kinase, Beclin 1, HMGB1, LC3, and β-actin. (a) MG-63 and cells were treated with cisplatin (20 μM) for 24 hr. (b) Control and GFRα1-deficient MG-63 cells were treated with cisplatin (20 μM) for 24 hr. (c-e) Immunoblot analysis of osteosarcoma cell lysates with antibodies specific for GFRα1, p-Src, Src, p-AMPK, AMPK, LC3, and β-actin. (c) Control and Src-deficient MG-63 cells were treated with cisplatin (20 μM) for 24 hr. (d) MG-63 cells were cultured in the presence or absence of PP1 (5 μM) and then treated with cisplatin (20 μM) for 24 hr. (e) MG-63 cells were cultured in the presence or absence of Compound C and then treated with cisplatin (20 μM) for 24 hr. (f) Cell viability of MG-63 cells after cisplatin treatment in the presence of PP1. MG-63 cells were cultured with DMSO or PP1 (2, 5 μM) and then treated with cisplatin (20 μM) for 24 hr. Cell viability was measured using the WST-1 assay. The values are represented as a mean±s.d.m. (n=3). ** denotes p<0.05 by t-test. (g) Cell viability of MG-63 cells after cisplatin treatment in the presence of Compound C. MG-63 cells were cultured with DMSO or Compound C (5, 10 μM) and then treated with cisplatin (20 μM) for 24 hr. Cell viability was measured using the WST-1 assay. The values are represented as a mean±s.d.m. (n=3). ** denotes p<0.05 by t-test.
as §1

N.N.[Cl][Pt][Cl] [cisplatin, Cis-Diamineplatinum(II) dichloride]
cell proliferation of GFRα1-deficient cells compared to control cells [1]: significantly reduced | level of GFRα1 expression [2]: significantly increased | level of phosphorylated AMPK [3]: increased | level of phosphorylated S6K (P70-S6Kinase) [3]: decreased | level of phosphorylated Src [3]: increased | level of phosphorylated mTOR [3]: decreased
